As a reminder, the DC50 is the concentration at which degradation of the target reaches its halfway point. Low values mean a more potent degrader, high ones a less potent degrader. What is called Dmax is the largest share of the target that was removed.

This experiment addresses T1, androgen receptor (Homo sapiens, UniProt P10275).
T1 construct: endogenous in cells; host or cells: VCaP cells
T1 sequence (P10275 1-920): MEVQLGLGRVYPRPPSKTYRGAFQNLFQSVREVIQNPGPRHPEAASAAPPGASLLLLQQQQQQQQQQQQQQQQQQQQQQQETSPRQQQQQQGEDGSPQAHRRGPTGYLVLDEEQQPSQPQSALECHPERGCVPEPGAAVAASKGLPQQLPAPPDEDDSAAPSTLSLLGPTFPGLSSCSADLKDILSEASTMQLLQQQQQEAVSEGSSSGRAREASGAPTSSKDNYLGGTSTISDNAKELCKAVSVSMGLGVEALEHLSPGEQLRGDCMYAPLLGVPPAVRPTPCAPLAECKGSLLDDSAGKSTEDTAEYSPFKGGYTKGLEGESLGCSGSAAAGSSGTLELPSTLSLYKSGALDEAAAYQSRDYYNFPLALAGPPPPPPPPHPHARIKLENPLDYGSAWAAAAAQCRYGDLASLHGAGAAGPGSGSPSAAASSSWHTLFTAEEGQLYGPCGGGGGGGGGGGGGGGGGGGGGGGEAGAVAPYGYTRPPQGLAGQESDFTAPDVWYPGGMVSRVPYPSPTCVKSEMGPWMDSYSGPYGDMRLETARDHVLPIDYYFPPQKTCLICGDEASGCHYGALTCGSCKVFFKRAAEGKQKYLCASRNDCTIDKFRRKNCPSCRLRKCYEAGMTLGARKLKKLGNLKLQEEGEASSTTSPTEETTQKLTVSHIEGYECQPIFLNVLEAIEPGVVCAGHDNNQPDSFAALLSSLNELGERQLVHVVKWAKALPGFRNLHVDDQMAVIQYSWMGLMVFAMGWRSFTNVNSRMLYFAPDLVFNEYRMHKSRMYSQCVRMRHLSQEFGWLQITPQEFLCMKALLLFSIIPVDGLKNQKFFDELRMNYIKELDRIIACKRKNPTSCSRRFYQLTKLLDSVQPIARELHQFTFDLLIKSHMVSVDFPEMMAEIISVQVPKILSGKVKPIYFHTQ
In words: In-Cell-Western determination of androgen receptor degradation in VCaP cells. It counts as cell-based. The conditions noted are these: 24 hours treatment; for DC50: concentration for half of the maximal degradation of AR in VCaP cells; for Dmax: maximum degradation of AR in VCaP cells. The method, then: The determination evaluated the properties of the compounds in Vcap cells. Intracellular androgen receptor was determined by In-Cell-Western according to the determination steps described below.
In poly-D-Lysin pretreated 96-well cell culture plate (Corning 3599), Vcap cells were divided into […] volume, and inoculated with 50,000 cells/well in Vcap cell assay medium [DMEM containing phenol red (Gibco catalog number: 11995065); fetal bovine serum FBS (Gibco catalog number: 10099141C)]. Cells were cultured for at least two days.
1. First treated cells with compound. Compounds were gradient diluted with DMSO and cell culture medium, so that DMSO contained in cell culture plates was diluted to 0.5% —polypropylene plates were used according to the following protocol:
(1)(i) 200× stock plate in DMSO was prepared; (ii) 10 mM stock solution was diluted 1:4 with DMSO (10 μL stock solution+40 μL DMSO)=2000 μM, then entered into row 2; (iii) 1:4 (10 μL protac+40 μL DMSO) gradient dilution was performed in row 2 to row 9, and row 1 was reserved for 2000 μM reference compound and row 10 for DMSO. (iv) A total of 8 concentrations (final concentrations on the 200×plate were 2000 μM, 400 μM, 80 μM, etc.). (i) 3×stock solution in medium was prepared; (ii) 3 μL of 200× stock solution was transferred to 197 μL of culture medium (using 12-channel pipette, from line 1 to line 10), i.e. 3× stock solution plate. (iii) The stock solution plate was mixed evenly. (3) (i) The culture medium of Vcap cells was replaced with fresh culture medium, 100 μL volume culture medium. (ii) The well-mixed 3×stock solution was transferred to the cell culture plate (using 12-channel pipette, and 50 μL of stock solution was transferred from line 1 to line 10). (iii) Cells were cultured for 24 hours.
2. The expression level of intracellular androgen receptor after compound treatment was […] and determined according to the following method.
(1)(i) Equal volume of 8% paraformaldehyde was added to the cell culture plate for cell fixation. The fixing solution in the cell plate was discarded and washed three times with PBS. (ii) Triton solution (1:1000 dilution of the stock solution) was prepared. The solution in the cell plate was discarded, and 200 μL of Triton diluent was added into each well. (iii) 2×blocking solution (1:4 dilution of 10×blocking stock solution) was prepared. The solution in the cell plate was discarded, and 100 μL of 2×blocking solution was added into each well. (iv) Primary antibody solution (Androgen receptor Rabbbit mAb, Cell Signaling Technology catalog number: 5153; 1:1000 dilution) was prepared. The solution in the cell plate was discarded, 100 μL volume of primary antibody diluent was added to each well, and incubated at 4° C. overnight. (v) The primary antibody solution was discarded and the cell plate was washed with 1×Wash buffer. (vi) Secondary antibody solution (GOAT Antirabbit IgG (H+L), HRP, Thermo catalog number: 31460; 1:5000 dilution) was prepared, and 100 μL volume of secondary antibody dilution was added to each well for incubation. (vii) The secondary antibody solution in the cell plate was discarded and the cell plate was washed with 1× Wash buffer. (viii) TMB chromogenic solution (BD catalog number: 550534) was prepared, and 100 μL chromogenic solution was added into each well. (ix) 50 μL volume of stop solution (BD catalog number: 550534) was added to each well. (x) The absorption values at OD 450 nm and 570 nm were read though EnVision. (2)(i) Normalized analysis was performed on the number of cells in each well. The solution in the cell plate was discarded, and washed with wash buffer for three times. (ii) Janus dilution (1:3 dilution) was prepared. (iii) 50 μL volume diluent was added to each well for incubation. (iv) The solution in the plate was discarded and washed with deionized water. […]

SMILES strings stand for the structures.

Regarding `CC1(C)C(=O)N(c2ccc(C#N)c(C(F)(F)F)c2)c2ccc(-c3ccc(N4CC(CN5CCN(c6ccc7c(c6)C(=O)N(C6CCC(=O)NC6=O)C7=O)CC5)C4)cc3)cc21` (stereo not drawn) [Compound 3], the half-maximal degradation concentration (DC50) was 76 nM and the Dmax is 60%.

On to `CC1(C)C(=O)N(c2ccc(C#N)c(Cl)c2)c2ccc(-c3ccc(N4CC(CN5CCN(c6ccc7c(c6)C(=O)N(C6CCC(=O)NC6=O)C7=O)CC5)C4)nc3F)cc21` (stereo not drawn) [Compound 14], for which it took 94 nM to reach half-maximal degradation (DC50) and the Dmax came out at 85%.

In the case of `CC1(C)C(=O)N(c2ccc(C#N)c(Cl)c2)c2ccc(-c3ccc(N4CC(CN5CCN(c6ccc7c(c6)C(=O)N(C6CCC(=O)NC6=O)C7=O)CC5)C4)cc3)cc21` (stereo not drawn) [Compound 1], it took 35 nM to reach half-maximal degradation (DC50) and the Dmax came to 68%.

These data come from US12441706B2, “Protein degradation agent compound preparation method and application” (SHANGHAI JEMINCARE PHARMACEUTICALS CO., LTD., priority 2019, dated 2025).
